Laboratory results: patent US20080254106A1 (SWITCH BIOTECH AG, priority 2004, published 2008)

Tests used:
[1] = tested on: α-CD3 stimulated peripheral blood mononuclear cells; assay: Proliferation of anti-CD3 stimulated PBMCs/T cells ([3H]-thymidine incorporation); type: cell-based
Procedure: Peripheral blood mononuclear cells (PBMCs) were isolated by Ficoll-gradient centrifugation from peripheral blood. 1×10^6 PBMCs/ml were re-suspended in RPMI/10% fetal calf serum (FCS) in 96-well plates in a concentration of 2×10^5 cells/well. […] As positive and negative controls PBMCs were used, which were stimulated by anti-CD3-antibody and non-stimulated PBMCs, respectively. The final concentration of the solvent DMSO was 0.1% in all examined wells. After two further days of incubation the cells were incubated with 1 μCi per well [^3H]-thymidine for 18 hours. The cells were then recovered on glass fibre filters by using a Micro 96 Harvester (Skatron Instruments, Lier, Norway). The incorporated radioactivity was analysed with a Packard Matrix 9600 Counter (Can berra Packard, Schwadorf, Austria). The experiments were carried out with the blood of three different donors. […] All other values were divided by the 100% value to obtain the relative percentage of proliferation.

[2] = tested on: cholinergic system; details: cited from earlier work
[3] = tested on: 5-hydroxytryptamine reuptake; details: cited from earlier work
[4] = tested on: noradrenaline reuptake; details: cited from earlier work
[5] = tested on: transplanted human psoriatic skin biopsies; assay: Human psoriatic skin transplant SCID mouse model; type: in vivo, SCID mice; details: 50 mg/kg daily intraperitoneal, four weeks, in comparison to vehicle control animals
Procedure: SCID mice were transplanted with human psoriatic skin biopsies. Two weeks after surgery therapy started. […] After four weeks of therapy the mice were sacrificed and biopsies were taken. 4 μm slices of the biopsies were stained with Masson trichrom. Epidermal areas were calculated. […] Treatment started two weeks after the transplantation. […] For therapy, 300 μl of a 5 mg/ml solution was daily injected intraperitonally (=50 mg/kg). The control group was injected in the same way with 300 μl vehicle. After four weeks the animals were sacrificed. The biopsies were removed, histologically stained (Masson trichrom) and examined for changes of the epidermal area.

[6] = tested on: HaCaT keratinocytes; assay: Proliferation of HaCaT keratinocytes (BrDU incorporation); type: cell-based; details: Homo sapiens, 48 hours treatment, relative to FCS stimulated positive control, mean of at least four experiments
Procedure: As a negative control cells were incubated with KBM.
For this purpose 5×10^3 HaCaT keratinocytes were seeded into 60 wells of a 96 well-plate in 200 μl KBM/10% FCS each and incubated for 24 hours at 37° C. […] At the end of the second incubation period the medium was removed and cell proliferation was determined by BrDU incorporation (Roche, #1 669 915) according to the manufacturer's instructions. […] All other values were divided by the 100% value to obtain the relative percentage of proliferation. […] At least four independent experiments were performed.

[7] = tested on: dopaminergic system; details: cited from earlier work
[8] = tested on: TNFα; assay: Secretion of TNFα of LPS stimulated THP-1 cells (ELISA); type: cell-based; details: 50 ng/ml LPS, six hours, concentration of 10 μmol/l and higher
Procedure: After stimulation with 50 ng/ml LPS the release of TNFα was determined.
After 2 h cells were stimulated with 50 ng/ml LPS. Six hours after LPS addition, culture supernatants were collected. TNFα concentrations were measured using an enzyme linked immunosorbent assay according to manufacturers protocol (R&D systems, #DTA00C). The TNFα concentrations reached after LPS stimulation without further treatment was set to 100%.

[9] = DTH (oxazolone) mouse ear swelling model; type: in vivo; details: topical 4%, 1%, 0.1% and 0.01% in acetone/olive oil, compared to placebo control
Procedure: A mixture of acetone/olive oil (4:1 vol/vol) is used as vehicle. Ear thickness is measured before start of the treatment (day 0), before challenge (day 6), and 24 h after challenge (d7, ear swelling response) (instrumentation e.g. Mitutoyo-Messgeräte GmbH). In addition, at the end of the experiment ear weights are determined by weighing 8 mm punch biopsies taken from both ears of each individual animal.

[10] = molecular target: T1, monoamine oxidase A (Homo sapiens, UniProt P21397); details: proposed mechanism of action; cited from earlier work
T1 sequence (P21397 1-527): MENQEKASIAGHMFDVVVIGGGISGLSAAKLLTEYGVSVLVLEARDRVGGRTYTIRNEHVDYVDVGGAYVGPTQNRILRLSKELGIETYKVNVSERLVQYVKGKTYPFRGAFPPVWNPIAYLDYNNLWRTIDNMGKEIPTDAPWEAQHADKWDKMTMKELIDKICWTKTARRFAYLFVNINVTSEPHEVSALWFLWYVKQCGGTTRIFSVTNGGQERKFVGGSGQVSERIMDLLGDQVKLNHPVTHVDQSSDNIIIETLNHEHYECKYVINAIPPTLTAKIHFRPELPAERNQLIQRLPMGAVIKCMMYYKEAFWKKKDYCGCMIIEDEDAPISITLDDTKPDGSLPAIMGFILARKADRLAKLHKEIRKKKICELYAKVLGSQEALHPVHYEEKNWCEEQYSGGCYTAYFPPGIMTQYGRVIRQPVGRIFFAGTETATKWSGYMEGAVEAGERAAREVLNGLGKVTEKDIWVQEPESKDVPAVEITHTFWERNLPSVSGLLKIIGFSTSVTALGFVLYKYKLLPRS

Structure (SMILES): Cc1ccc2c(c1)c1c3n2CCNC3CCC1 (centres unmarked) [Pirlindole, 2,3,3a,4,5,6-hexahydro-8-methyl-1H-pyrazino[3,2,1-jk]carbazole]
- IC50 ([1]; PBMC, 10 μg/ml soluble anti-CD3-antibody, [3H]-thymidine, three donors, mean): 16 µM
- Inhibitory effect on proliferation in vitro ([1]; at a concentration of Pirlindole of 10 μmol/l (examples 2, 3)): inhibitory effect
- Effect on the cholinergic system [2]: no effect
- Effect on 5-hydroxytryptamine reuptake [3]: inhibitory effect
- Effect on noradrenaline reuptake [4]: inhibitory effect
- Epidermal area of the transplants [5]: clearly decreased
- IC50 [6]: 47 µM
- Effect on the dopaminergic system [7]: no effect
- Release of TNFα [8]: clear inhibition
- Parameters of inflammation severity (ear weight, ear thickness) [9]: improvement of one or more parameters of inflammation severity
- Inhibition of monoamine oxidase A [10]: selective and reversible inhibition
